Reference: patent publication US10968193B2, “Antidiabetic bicyclic compounds” (Merck Sharp & Dohme Corp., priority 2014, dated 2021)

Biological target: T1, human GPR40 (Homo sapiens, UniProt O14842)
T1 construct: expressed in transfected cells; host or cells: HEK cells stably expressing the aequorin reporter
Assay: Inositol Phosphate Turnover (IP1) Assay 3
Type: cell-based
Conditions: HEK cells stably expressing human GPR40
Procedure: Human and mouse GPR40 stable cell-lines were generated in CHO cells stably expressing NFAT BLA (Beta-lactamase). A human GPR40 stable cell-line was generated in HEK cells stably expressing the aequorin expressing reporter. The expression plasmids were transfected using lipofectamine (Life Technologies) following manufacturer's instructions. Stable cell-lines were generated following drug selection.
Inositol Phosphate Turnover (IP1) Assay 3:
The assay was performed in 384-well format. HEK cells stably expressing human GPR40 were plated at 7500 cells per well in growth medium (DMEM/10% fetal calf serum). Cell plates were then incubated 16 hours at 37 degrees in a 5% CO2 incubator.
Measurement of Inositol Phosphate Turnover (IP) was performed using the CisBio IP-One kit (Part number 62IPAPEB). After the 16 hour incubation, the growth media was removed by centrifugation using the BlueWasher (AusWasher GUI Ver. v1.0.1.8) Protocol #21—“Light Dry” and 10 ul of stimulation buffer (prepared as described in the kit) was added to each well. In a separate plate, compounds were diluted in DMSO (200-fold over the final concentration in the assay well) and 50 nl was acoustically transferred to the appropriate well in the assay cell plate. The plates were then incubated for 60 minutes at 37 degrees in a 5% CO2 incubator. 10 ul of detection buffer (also prepared as described in the IP-One kit) was added to each well and the plates were incubated at rt for 60 minutes in the dark. The plates were then read in a Perkin Elmer EnVision or equivalent reader able to measure FRET. Fluorescent ratio of emission at 665 and 620 nm was then converted to IP1 concentration by back calculating from an IP1 standard curve prepared at the time of the assay. Data is normalized to % activity using a reference compound and EC50s determined using a standard 4-parameter fit.

T1 sequence (O14842 whole entry): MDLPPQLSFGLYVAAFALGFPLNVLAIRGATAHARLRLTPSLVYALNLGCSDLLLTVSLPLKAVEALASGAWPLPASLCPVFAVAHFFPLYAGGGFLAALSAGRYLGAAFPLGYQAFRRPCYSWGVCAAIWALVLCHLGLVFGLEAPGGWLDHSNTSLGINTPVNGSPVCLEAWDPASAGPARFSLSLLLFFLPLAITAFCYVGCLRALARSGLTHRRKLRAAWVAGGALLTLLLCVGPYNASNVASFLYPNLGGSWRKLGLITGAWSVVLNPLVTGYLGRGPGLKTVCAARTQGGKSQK

Row | EC50 [nM] | SMILES
1 | 387 | COc1cc(-c2ccc(C3CCc4ccc([C@H](C5CC5)[C@H](C)C(=O)O)cc4O3)c(CN3[C@H](C)CC[C@H]3C)c2)ccn1 (single isomer, unassigned) [Example 116d]
2 | 0.4 | COc1cc(-c2ccc(C3CCc4ccc([C@H](C5CC5)[C@H](C)C(=O)O)cc4O3)c(CN3CCCCC3(C)C)c2)ccn1 (single isomer, unassigned) [Example 117a]
3 | 24 | COc1cc(-c2ccc(C3CCc4ccc([C@H](C5CC5)[C@H](C)C(=O)O)cc4O3)c(CN3CCCCC3(C)C)c2)ccn1 (single isomer, unassigned) [Example 117b]
4 | 0.6 | COc1cc(-c2ccc(C3CCc4ccc([C@H](C5CC5)[C@H](C)C(=O)O)cc4O3)c(CN3CCC[C@@H]3C)c2)ccn1 (single isomer, unassigned) [Example 118a]
5 | 109 | COc1cc(-c2ccc(C3CCc4ccc([C@H](C5CC5)[C@H](C)C(=O)O)cc4O3)c(CN3CCC[C@@H]3C)c2)ccn1 (single isomer, unassigned) [Example 118b]
6 | 308 | COc1cc(-c2ccc(C3CCc4ccc([C@H](C5CC5)[C@H](C)C(=O)O)cc4O3)c(CN3CCC[C@H]3C)c2)ccn1 (single isomer, unassigned) [Example 119a]
7 | 4.2 | COc1cc(-c2ccc(C3CCc4ccc([C@H](C5CC5)[C@H](C)C(=O)O)cc4O3)c(CN3CCC[C@H]3C)c2)ccn1 (single isomer, unassigned) [Example 119b]
8 | 0.4 | COc1cc(-c2ccc(C3CCc4ccc([C@H](C5CC5)[C@H](C)C(=O)O)cc4O3)c(CN3CCCC[C@H]3C)c2)ccn1 (single isomer, unassigned) [Example 120a]
9 | 41 | COc1cc(-c2ccc(C3CCc4ccc([C@H](C5CC5)[C@H](C)C(=O)O)cc4O3)c(CN3CCCC[C@H]3C)c2)ccn1 (single isomer, unassigned) [Example 120b]
10 | 3.3 | COc1cc(-c2ccc(C3CCc4ccc([C@H](C5CC5)[C@H](C)C(=O)O)cc4O3)c(CN3[C@H](C)CC[C@@H]3C)c2)ccn1 (single isomer, unassigned) [Example 122a]
11 | 190 | COc1cc(-c2ccc(C3CCc4ccc([C@H](C5CC5)[C@H](C)C(=O)O)cc4O3)c(CN3[C@H](C)CC[C@@H]3C)c2)ccn1 (single isomer, unassigned) [Example 122b]
12 | 91 | COc1cc(-c2ccc(C3CCc4ccc([C@H](C5CC5)[C@H](C)C(=O)O)cc4O3)c(CN3CCCC3)c2)c(F)cn1 (single isomer, unassigned) [Example 123a]
13 | 1.4 | COc1cc(-c2ccc(C3CCc4ccc([C@H](C5CC5)[C@H](C)C(=O)O)cc4O3)c(CN3CCCC3)c2)c(F)cn1 (single isomer, unassigned) [Example 123b]
14 | 0.09 | CCN(Cc1cc(-c2cc(OC)ncc2F)ccc1C1CCc2ccc([C@H](C3CC3)[C@H](C)C(=O)O)cc2O1)C(C)C (single isomer, unassigned) [Example 124a]
15 | 16 | CCN(Cc1cc(-c2cc(OC)ncc2F)ccc1C1CCc2ccc([C@H](C3CC3)[C@H](C)C(=O)O)cc2O1)C(C)C (single isomer, unassigned) [Example 124b]
16 | 0.3 | COc1cc(-c2ccc(C3CCc4ccc([C@H](C5CC5)[C@H](C)C(=O)O)cc4O3)c(CN(C)C(C)(C)C)c2)c(F)cn1 (single isomer, unassigned) [Example 125a]
17 | 12 | COc1cc(-c2ccc(C3CCc4ccc([C@H](C5CC5)[C@H](C)C(=O)O)cc4O3)c(CN(C)C(C)(C)C)c2)c(F)cn1 (single isomer, unassigned) [Example 125b]
18 | 0.05 | COc1cc(-c2ccc(C3CCc4ccc([C@H](C5CC5)[C@H](C)C(=O)O)cc4O3)c(CN(C(C)C)C(C)C)c2)c(F)cn1 (single isomer, unassigned) [Example 126a]
19 | 2.7 | COc1cc(-c2ccc(C3CCc4ccc([C@H](C5CC5)[C@H](C)C(=O)O)cc4O3)c(CN(C(C)C)C(C)C)c2)c(F)cn1 (single isomer, unassigned) [Example 126b]
